Measured values: ChEMBL document CHEMBL4321853, “Multitarget CFTR Modulators Endowed with Multiple Beneficial Side Effects for Cystic Fibrosis Patients: Toward a Simplified Therapeutic Approach †” (J Med Chem, 2019)
Converted amounts (≈) assume the structure as drawn. Each block holds one compound with its values, some of them ahead of it. The source made the active and inactive calls. The rule behind the calls is not given here.

Tests used:
[1] = test system: Cystic fibrosis transmembrane conductance regulator (Homo sapiens), P13569 [F508del]; assay: Corrector activity at CFTR F508del mutant (unknown origin) transfected in human HEK293 membrane cells assessed as increase in anion permeability at 3 uM incubated for 24 hrs by using YFP probe based fluorescence inverted microscopic analysis; assay type: cell-based
Chain of Cystic fibrosis transmembrane conductance regulator (Homo sapiens), P13569 [F508del] (P13569 as listed by the source): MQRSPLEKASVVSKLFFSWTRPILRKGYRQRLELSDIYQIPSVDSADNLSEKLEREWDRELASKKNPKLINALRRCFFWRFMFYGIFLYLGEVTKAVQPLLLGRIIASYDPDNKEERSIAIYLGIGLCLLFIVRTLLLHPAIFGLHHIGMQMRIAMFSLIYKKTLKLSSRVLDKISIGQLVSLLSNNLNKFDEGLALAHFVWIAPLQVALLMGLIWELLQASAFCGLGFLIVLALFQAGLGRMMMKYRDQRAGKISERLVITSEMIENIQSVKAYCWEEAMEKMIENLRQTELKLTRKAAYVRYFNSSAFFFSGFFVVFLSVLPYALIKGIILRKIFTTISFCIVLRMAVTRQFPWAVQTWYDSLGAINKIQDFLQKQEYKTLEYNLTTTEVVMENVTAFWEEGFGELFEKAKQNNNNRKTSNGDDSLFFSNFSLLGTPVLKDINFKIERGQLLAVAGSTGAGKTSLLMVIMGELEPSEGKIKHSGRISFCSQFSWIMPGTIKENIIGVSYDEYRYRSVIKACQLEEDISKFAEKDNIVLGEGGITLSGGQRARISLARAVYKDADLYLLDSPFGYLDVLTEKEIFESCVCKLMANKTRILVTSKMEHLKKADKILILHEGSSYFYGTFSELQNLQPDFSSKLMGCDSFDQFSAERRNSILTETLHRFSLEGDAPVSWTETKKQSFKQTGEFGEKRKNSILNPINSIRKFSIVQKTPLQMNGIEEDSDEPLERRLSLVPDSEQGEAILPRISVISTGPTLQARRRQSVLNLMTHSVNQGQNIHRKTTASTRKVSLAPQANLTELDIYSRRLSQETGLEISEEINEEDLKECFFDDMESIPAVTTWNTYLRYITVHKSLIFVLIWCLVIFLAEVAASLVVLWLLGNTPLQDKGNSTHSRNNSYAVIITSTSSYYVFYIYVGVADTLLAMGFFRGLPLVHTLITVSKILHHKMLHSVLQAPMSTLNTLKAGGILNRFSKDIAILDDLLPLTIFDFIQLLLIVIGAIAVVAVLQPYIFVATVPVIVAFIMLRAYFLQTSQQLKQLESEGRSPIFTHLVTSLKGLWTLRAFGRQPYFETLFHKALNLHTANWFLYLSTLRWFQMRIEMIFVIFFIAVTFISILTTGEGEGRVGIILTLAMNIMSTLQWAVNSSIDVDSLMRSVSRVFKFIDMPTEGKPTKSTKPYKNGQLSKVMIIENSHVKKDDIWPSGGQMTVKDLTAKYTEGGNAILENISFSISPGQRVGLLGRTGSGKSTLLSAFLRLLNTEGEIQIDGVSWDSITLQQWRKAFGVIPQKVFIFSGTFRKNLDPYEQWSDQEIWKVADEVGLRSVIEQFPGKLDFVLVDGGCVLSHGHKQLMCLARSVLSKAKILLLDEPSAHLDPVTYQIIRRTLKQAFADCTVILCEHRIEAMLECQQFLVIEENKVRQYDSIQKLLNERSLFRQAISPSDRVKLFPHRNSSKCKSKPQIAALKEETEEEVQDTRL

[2] = Toxicity in C57BL/6 mouse assessed as inflammation of intestinal submucosa upto 180 mg/kg, sc observed after 4 and 72 hrs by hematoxylin and eosin staining based microscopy; assay type: organism-based; conditions: in vivo
[3] = Stability in human plasma assessed as half life measured upto 24 hrs by UV/LC-MS analysis; assay type: ADME, cell-free
[4] = Cytotoxicity against human RD cells infected with Human coxsackievirus B3 assessed as reduction in cell viability incubated for 2 to 3 days by MTS assay; assay type: cell-based
[5] = Toxicity in C57BL/6 mouse assessed as hemorrhage in lung upto 180 mg/kg, sc observed after 4 and 72 hrs by hematoxylin and eosin staining based microscopy; assay type: organism-based; conditions: in vivo
Enterovirus A71 = assay: Antiviral activity against Enterovirus A71 infected in human RD cells assessed as reduction in cytopathic effect incubated for 2 to 3 days by MTS assay; assay type: functional, organism-based
[6] = Toxicity in C57BL/6 mouse assessed as effect on distribution of goblet cells upto 180 mg/kg, sc observed after 4 and 72 hrs by hematoxylin and eosin staining based microscopy; assay type: organism-based; conditions: in vivo
[7] = Aqueous solubility of compound by LC-MS analysis; assay type: physicochemical; conditions: buffer
[8] = Cytotoxicity against human RD cells infected with Human rhinovirus A2 assessed as reduction in cell viability incubated for 2 to 3 days by MTS assay; assay type: cell-based
[9] = Toxicity in C57BL/6 mouse assessed as effect on hepatic labyrinth of hepatocytes upto 180 mg/kg, sc observed after 4 and 72 hrs by hematoxylin and eosin staining based microscopy; assay type: organism-based; conditions: in vivo
[10] = Cytotoxicity against human RD cells infected with Human rhinovirus B14 assessed as reduction in cell viability incubated for 2 to 3 days by MTS assay; assay type: cell-based
Coxsackievirus B3 = assay: Antiviral activity against Human coxsackievirus B3 infected in human RD cells assessed as reduction in cytopathic effect incubated for 2 to 3 days by MTS assay; assay type: functional, organism-based; conditions: Enterovirus B
rhinovirus B14 = assay: Antiviral activity against Human rhinovirus B14 infected in human RD cells assessed as reduction in cytopathic effect incubated for 2 to 3 days by MTS assay; assay type: functional, organism-based; conditions: Rhinovirus B
[11] = test system: Cystic fibrosis transmembrane conductance regulator (Homo sapiens), P13569 [F508del]; assay: Corrector activity at CFTR F508del mutant (unknown origin) transfected in human HEK293 membrane cells assessed as increase in CFTR level at 3 uM incubated for 24 hrs by using pHTomato probe based fluorescence inverted microscopic analysis; assay type: cell-based
[12] = Metabolic stability in human liver microsomes assessed as compound remaining at 50 uM incubated for 1 hr by UV/LC-MS analysis; assay type: ADME, Microsome; conditions: read-out: Stability
[13] = Acute toxicity in C57BL/6 mouse assessed as effect on behavior changes upto 180 mg/kg, sc observed for 15 days; assay type: organism-based; conditions: in vivo, 360 h
[14] = Toxicity in C57BL/6 mouse assessed as alveolar/interstitial inflammatory infiltrate upto 180 mg/kg, sc observed after 4 and 72 hrs by hematoxylin and eosin staining based microscopy; assay type: organism-based; conditions: in vivo
[15] = Toxicity in C57BL/6 mouse assessed as epithelial hyperplasia upto 180 mg/kg, sc observed after 4 and 72 hrs by hematoxylin and eosin staining based microscopy; assay type: organism-based; conditions: in vivo
Albumin [16] = molecular target: T1, Albumin (Homo sapiens, UniProt P02768); assay: Binding affinity to human serum albumin assessed as dissociation constant incubated for 30 mins by spectrofluorimetry; assay type: ADME
T1 sequence (P02768 whole entry): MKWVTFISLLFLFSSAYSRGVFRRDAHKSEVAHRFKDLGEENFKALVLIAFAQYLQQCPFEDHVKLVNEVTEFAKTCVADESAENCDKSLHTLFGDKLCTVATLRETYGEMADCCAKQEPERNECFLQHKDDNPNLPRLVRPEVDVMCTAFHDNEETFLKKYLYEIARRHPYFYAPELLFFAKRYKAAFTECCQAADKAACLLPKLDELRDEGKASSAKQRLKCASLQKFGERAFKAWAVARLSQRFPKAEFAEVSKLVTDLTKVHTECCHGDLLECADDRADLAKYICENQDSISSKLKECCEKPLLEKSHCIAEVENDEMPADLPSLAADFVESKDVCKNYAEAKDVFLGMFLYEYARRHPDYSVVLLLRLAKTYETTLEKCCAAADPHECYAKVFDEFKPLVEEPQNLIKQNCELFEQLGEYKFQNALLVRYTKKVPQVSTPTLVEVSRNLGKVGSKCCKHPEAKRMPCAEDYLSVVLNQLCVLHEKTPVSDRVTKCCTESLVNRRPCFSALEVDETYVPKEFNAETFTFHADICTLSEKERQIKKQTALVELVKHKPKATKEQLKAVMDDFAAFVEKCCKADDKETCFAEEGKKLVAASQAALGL

[17] = Acute toxicity in C57BL/6 mouse assessed as effect on motor coordination upto 180 mg/kg, sc observed for 15 days; assay type: organism-based; conditions: in vivo, 360 h
[18] = test system: Cystic fibrosis transmembrane conductance regulator (Homo sapiens), P13569 [F508del]; assay: Corrector activity at CFTR F508del mutant (unknown origin) transfected in human HEK293 membrane cells assessed as increase in CFTR F508del level at 10 uM incubated for 24 hrs by using pHTomato probe based fluorescence inverted microscopic analysis; assay type: cell-based
[19] = Toxicity in C57BL/6 mouse assessed as effect on columnar lining cell upto 180 mg/kg, sc observed after 4 and 72 hrs by hematoxylin and eosin staining based microscopy; assay type: organism-based; conditions: in vivo
[20] = Membrane retention of compound by PAMPA assay; assay type: ADME
[21] = Selectivity index, ratio of CC50 for human RD cells to EC50 for Enterovirus A71 infected in human RD cells; assay type: toxicity, cell-based; conditions: read-out: Ratio CC50/EC50
[22] = Acute toxicity in C57BL/6 mouse assessed as body weight loss upto 180 mg/kg, sc observed for 15 days; assay type: organism-based; conditions: in vivo, 360 h
[23] = Cytotoxicity against human RD cells assessed as reduction in cell viability incubated for 2 to 3 days by MTS assay; assay type: cell-based
[24] = Toxicity in C57BL/6 mouse assessed as effect on alveolar microstructure upto 180 mg/kg, sc observed after 4 and 72 hrs by hematoxylin and eosin staining based microscopy; assay type: organism-based; conditions: in vivo
rhinovirus A2 = assay: Antiviral activity against Human rhinovirus A2 infected in human RD cells assessed as reduction in cytopathic effect incubated for 2 to 3 days by MTS assay; assay type: functional, organism-based; conditions: Rhinovirus A
Albumin [25] = molecular target: T1, Albumin; assay: Binding affinity to human serum albumin assessed as maximum binding at 0.1 to 500 uM incubated for 30 mins by spectrofluorimetry; assay type: ADME; conditions: isolated protein, 0.5 h
[26] = molecular target: Phosphatidylinositol 4-kinase beta (Homo sapiens, UniProt Q9UBF8); assay: Inhibition of recombinant human full length His6-tagged PI4KIII beta expressed in Sf9 cells incubated for 0 mins in presence of [gamma-33P ATP] by scintillation counting method
Chain of Phosphatidylinositol 4-kinase beta (Q9UBF8 whole entry): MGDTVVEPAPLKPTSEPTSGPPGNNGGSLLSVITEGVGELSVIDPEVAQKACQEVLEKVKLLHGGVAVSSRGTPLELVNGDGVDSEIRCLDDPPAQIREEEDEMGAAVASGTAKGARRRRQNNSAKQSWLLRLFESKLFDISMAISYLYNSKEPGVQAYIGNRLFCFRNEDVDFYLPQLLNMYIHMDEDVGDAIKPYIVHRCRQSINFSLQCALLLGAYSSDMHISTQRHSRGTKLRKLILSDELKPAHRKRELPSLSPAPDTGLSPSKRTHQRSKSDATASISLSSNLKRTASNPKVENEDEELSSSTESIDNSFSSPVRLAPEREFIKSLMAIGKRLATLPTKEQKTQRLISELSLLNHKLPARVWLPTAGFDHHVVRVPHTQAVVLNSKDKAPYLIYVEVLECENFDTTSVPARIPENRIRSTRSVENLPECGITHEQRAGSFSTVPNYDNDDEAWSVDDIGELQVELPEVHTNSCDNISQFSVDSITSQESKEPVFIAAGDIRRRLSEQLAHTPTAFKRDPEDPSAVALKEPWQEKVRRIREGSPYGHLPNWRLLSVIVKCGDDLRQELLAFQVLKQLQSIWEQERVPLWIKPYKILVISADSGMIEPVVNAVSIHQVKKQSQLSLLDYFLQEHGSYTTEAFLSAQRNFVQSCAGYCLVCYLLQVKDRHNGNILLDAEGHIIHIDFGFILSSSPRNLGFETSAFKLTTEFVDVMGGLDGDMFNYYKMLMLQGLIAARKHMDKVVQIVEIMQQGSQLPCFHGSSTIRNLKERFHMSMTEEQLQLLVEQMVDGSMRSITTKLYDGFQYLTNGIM

[27] = Apparent permeability of compound by PAMPA assay; assay type: ADME
[28] = Enterovirus A, RD, read-out: EC50

SMILES: CC(=O)c1cccc(N(CCO)c2nc(-c3sc(NC(=O)C(C)(C)C)nc3C)cs2)c1
Activity [1]: Active
Activity [2]: Non-Toxic
half-life [3]: 24.2 days
CC50 [4]: > 218 µM
Activity [5]: Non-Toxic
EC90 (Enterovirus A71; Enterovirus A, RD): 5.78 µM
EC50 (Enterovirus A71; [28]): < 0.43 µM
Activity [6]: Non-Toxic
solubility ([7]; read-out: solubility): 0.1 µM (≈ 0.0459 µg/mL)
CC50 [8]: 16.8 µM
Activity [9]: Non-Toxic
CC50 [10]: 16.8 µM
EC50 (Coxsackievirus B3): 6.6 µM
EC50 (rhinovirus B14): > 9.1 µM
Activity [11]: Active
remaining at 1 h, 50 µM [12]: 98%
Activity [13]: Non-Toxic
Activity [14]: Non-Toxic
Activity [15]: Non-Toxic
Kd (Albumin [16]): 18.5 µM
Activity [17]: Non-Toxic
Activity [18]: Active
Activity [19]: Non-Toxic
R% [20]: < 0.1%
selectivity ratio [21]: > 67.2
Activity [22]: Non-Toxic
CC50 [23]: 28.9 µM
Activity [24]: Non-Toxic
EC50 (rhinovirus A2): 6.1 µM
Bmax (Albumin [25]): 81.73

SMILES: Cc1nc(NC(=O)C(C)(C)C)sc1-c1csc(NCCCC(=O)O)n1
EC50 (Enterovirus A71; [28]): 7.27 µM
CC50 [23]: 261 µM

SMILES: CCC(=O)Nc1nc(-c2sc(NC(C)=O)nc2C)cs1
EC50 (Enterovirus A71): Not Active

SMILES: Cc1nc(NC(=O)OC(C)(C)C)sc1-c1csc(NCCO)n1
EC50 (Enterovirus A71; [28]): 11.4 µM
CC50 [23]: > 421 µM

SMILES: CC(=O)Nc1nc(C)c(-c2csc(N(CCO)C3CCCCC3)n2)s1
CC50 [4]: 20.8 µM
EC50 (Enterovirus A71; [28]): 1.1 µM
CC50 [8]: > 4.51 µM
CC50 [10]: 4.51 µM
EC50 (Coxsackievirus B3): 16.1 µM
EC50 (rhinovirus B14): 6.24 µM
CC50 [23]: 16.4 µM
EC50 (rhinovirus A2): > 263 µM

Activity [1]: Active
Activity [11]: Active
Activity [18]: Active
SMILES: Cc1nc(NC(=O)C(C)(C)C)sc1-c1csc(N(CCO)C2CCCCC2)n1
EC50 (Enterovirus A71; [28]): 4.96 µM
CC50 [23]: 4.46 µM

SMILES: CC(=O)Nc1nc(C)c(-c2csc(N(C)C3CCCCC3)n2)s1
EC50 (Enterovirus A71; [28]): 0.88 µM
CC50 [23]: 19.4 µM

SMILES: C=CC(=O)Nc1nc(-c2sc(NC(C)=O)nc2C)cs1
EC50 (Enterovirus A71; [28]): 1.89 µM
CC50 [23]: 6.01 µM

SMILES: Cc1nc(NC(=O)C(C)(C)C)sc1-c1csc(NCCC(=O)O)n1
EC50 (Enterovirus A71; [28]): 6.48 µM
CC50 [23]: > 271 µM

SMILES: CC(=O)Nc1nc(C)c(-c2csc(NC3CCCCC3)n2)s1
EC50 (Enterovirus A71; [28]): 1.1 µM
CC50 [23]: 25.5 µM

SMILES: CC(=O)Nc1nc(C)c(-c2csc(NC(=O)/C=C/C(C)C)n2)s1
EC50 (Enterovirus A71; [28]): 107 µM
CC50 [23]: 172 µM

SMILES: Cc1nc(NC(=O)c2ccccc2)sc1-c1csc(NCCO)n1
EC50 (Enterovirus A71): Not Active

Activity [1]: inactive
Activity [11]: Active
Activity [18]: Active
SMILES: Cc1nc(NC(=O)C(C)(C)C)sc1-c1csc(NCCO)n1
CC50 [4]: > 293 µM
EC50 (Enterovirus A71; [28]): 1.83 µM
CC50 [8]: 41.2 µM
CC50 [10]: 41.2 µM
EC50 (Coxsackievirus B3): 2.3 µM
EC50 (rhinovirus B14): 3.8 µM
CC50 [23]: 361 µM
EC50 (rhinovirus A2): 5.4 µM

Activity [11]: Active
SMILES: CC(=O)c1cccc(Nc2nc(-c3sc(NC(=O)c4ccccc4)nc3C)cs2)c1

SMILES: CC(=O)Nc1nc(C)c(-c2csc(NC3CCC(C)CC3)n2)s1 (stereo not given)
EC50 (Enterovirus A71; [28]): 0.34 µM
CC50 [23]: 10.9 µM

SMILES: Cc1nc(NC(=O)C(C)(C)C)sc1-c1csc(NCC(=O)O)n1
EC50 (Enterovirus A71; [28]): 5.31 µM
CC50 [23]: > 282 µM

IC50 [26]: Not Active
SMILES: C=CS(=O)(=O)Nc1nc(-c2sc(NC(C)=O)nc2C)cs1
EC50 (Enterovirus A71; [28]): > 290 µM

Activity [11]: Active
SMILES: CC(=O)c1cccc(Nc2nc(-c3sc(NC(=O)OC(C)(C)C)nc3C)cs2)c1

SMILES: CC(=O)Nc1nc(C)c(-c2csc(N(CCO)c3cccc(C(C)=O)c3)n2)s1
EC50 (Enterovirus A71): Not Active

half-life [3]: 3.61 days
solubility [7]: 0.02 µM (≈ 0.00914 µg/mL)
Papp [27]: 8.1 ×10⁻⁶ cm/s
remaining at 1 h, 50 µM [12]: 98%
Kd (Albumin [16]): 11.7 µM
R% [20]: 37.9%
Bmax (Albumin [25]): 88.82
SMILES: COc1ccc(Cl)cc1Nc1nc(-c2sc(NC(=O)c3ccccc3)nc2C)cs1

Activity [1]: Active
Activity [11]: Active
Activity [18]: Active
SMILES: Cc1nc(NC(=O)C(C)(C)C)sc1-c1csc(Nc2cccc(C(=O)O)c2)n1
CC50 [4]: 111 µM
EC50 (Enterovirus A71; [28]): 0.42 µM
CC50 [8]: 36.3 µM
CC50 [10]: 36.3 µM
EC50 (Coxsackievirus B3): 17 µM
EC50 (rhinovirus B14): 15.3 µM
CC50 [23]: 32.1 µM
EC50 (rhinovirus A2): 9.7 µM

SMILES: CC(=O)Nc1nc(C)c(-c2csc(NCCO)n2)s1
EC50 (Enterovirus A71; [28]): 12.6 µM
CC50 [23]: 333 µM

SMILES: CC(=O)Nc1nc(C)c(-c2csc(NC(=O)CBr)n2)s1
EC50 (Enterovirus A71): Not Active
